Usually DC50 stands for the concentration at which degradation of the target reaches its halfway point. A lower DC50 goes with a more potent degrader. As usually defined, the Emax is the maximal effect, on the per cent scale that the assay sets.

The results in this text go back to patent publication US12559492B2, “BRAF degraders” (C4 Therapeutics, Inc., priority 2020, dated 2026).

Each structure is given as a SMILES string.

The experiment deals with BRAF^V600E protein (Homo sapiens, UniProt P15056, V600E). Briefly: HiBiT cellular BRAF V600E degradation assay. It is filed as cell-based. Conditions: 24 h incubation; for DC50: A375.10 cells (HiBiT tag knocked in at N-terminal of BRAF V600E), concentration at which 50% of total cellular BRAF V600E is degraded; for Emax: read-out: HiBit 24 h Emax. (HiBiT is a short tag that completes a luciferase, so light tracks the accessible tagged protein.)

[1] abbreviates: A375.10 cells, Emax = amount of residual protein remaining in the cell after compound treatment.

BRAF^V600E protein, sequence (P15056 whole entry V600E): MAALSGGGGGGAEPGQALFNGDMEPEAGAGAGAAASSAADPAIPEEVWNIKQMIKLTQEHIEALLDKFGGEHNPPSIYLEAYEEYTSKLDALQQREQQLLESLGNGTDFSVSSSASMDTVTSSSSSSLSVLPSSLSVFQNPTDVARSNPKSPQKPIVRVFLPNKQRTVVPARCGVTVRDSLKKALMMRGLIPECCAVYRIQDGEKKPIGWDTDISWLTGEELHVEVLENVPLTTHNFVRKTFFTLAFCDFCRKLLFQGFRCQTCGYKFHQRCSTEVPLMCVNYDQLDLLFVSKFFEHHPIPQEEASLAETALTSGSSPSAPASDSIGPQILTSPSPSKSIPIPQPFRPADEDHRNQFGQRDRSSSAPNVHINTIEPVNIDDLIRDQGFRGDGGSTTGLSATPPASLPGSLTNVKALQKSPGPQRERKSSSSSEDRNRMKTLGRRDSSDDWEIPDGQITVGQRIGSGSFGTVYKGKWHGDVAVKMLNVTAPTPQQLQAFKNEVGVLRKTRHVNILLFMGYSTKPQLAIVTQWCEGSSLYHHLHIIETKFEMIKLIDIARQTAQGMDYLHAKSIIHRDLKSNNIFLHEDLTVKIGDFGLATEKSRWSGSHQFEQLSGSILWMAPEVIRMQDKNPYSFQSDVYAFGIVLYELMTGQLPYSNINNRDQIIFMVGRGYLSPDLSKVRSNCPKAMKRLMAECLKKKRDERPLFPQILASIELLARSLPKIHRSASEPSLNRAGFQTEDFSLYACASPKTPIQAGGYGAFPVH

Consider `CCN(C)S(=O)(=O)Nc1ccc(F)c(C(=O)c2c[nH]c3ncc(-c4ccc(N5CCC(NC(=O)CN6CCC(c7ccc(OC8CCC(=O)NC8=O)cn7)CC6)CC5)nc4)cc23)c1F` (stereo not shown) [Example A65, 2-[4-[5-(2,6-Dioxopiperidin-3-yl)oxypyridin-2-yl]piperidin-1-yl]-N-[1-[5-[3-[3-[[ethyl(methyl)sulfamoyl]amino]-2,6-difluorobenzoyl]-1H-pyrrolo[2,3-b]pyridin-5-yl]pyridin-2-yl]piperidin-4-yl]acetamide;formic acid], for which it took 151 nM to reach half-maximal degradation (DC50). Moreover, under setting [1], the maximal response (Emax) turned out to be 18%.
As to `O=C1CCC(Nc2ccc(N3CCC(O)(CC(=O)N4CCN(c5ccc(-c6cnc7[nH]cc(C(=O)c8c(F)ccc(NS(=O)(=O)N9CC[C@@H](F)C9)c8F)c7c6)cc5)CC4)CC3)c(F)c2)C(=O)N1` (stereo partly drawn) [Example 191, (3R)—N-[3-[5-[4-[4-[2-[1-[4-[(2,6-dioxo-3-piperidyl)amino]-2-fluoro-phenyl]-4-hydroxy-4-piperidyl]acetyl]piperazin-1-yl]phenyl]-1H-pyrrolo[2,3-b]pyridine-3-carbonyl]-2,4-difluoro-phenyl]-3-fluoro-pyrrolidine-1-sulfonamide], it took 3.89 nM to reach half-maximal degradation (DC50). Moreover, the Emax under setting [1] turned out to be 7.76%.
In the same order, the values of `[2H][C@]1(c2ccc(N3CCC(O)(CC(=O)N4CCN(c5ncc(-c6cnc7[nH]cc(C(=O)c8c(F)ccc(NS(=O)(=O)N(C)CC)c8F)c7c6)cn5)CC4)CC3)c(F)c2)CCC(=O)NC1=O` (single isomer, unassigned) [Example 158d] are 205 nM and 11.6%.
In the same order, the values of `CCN(C)S(=O)(=O)Nc1ccc(F)c(C(=O)c2c[nH]c3ncc(-c4cnc(N5CCC(CC(=O)NC6CCN(c7ccc(NC8CCC(=O)NC8=O)cc7F)CC6)CC5)nc4)cc23)c1F` (stereo not shown) [Example 134, N-[1-[4-[(2,6-dioxo-3-piperidyl)amino]-2-fluoro-phenyl]-4-piperidyl]-2-[1-[5-[3-[3-[[ethyl(methyl)sulfamoyl]amino]-2,6-difluoro-benzoyl]-1H-pyrrolo[2,3-b]pyridin-5-yl]pyrimidin-2-yl]-4-piperidyl]acetamide] are 18.9 nM and 11%.
In the same order, the values of `CCN(C)S(=O)(=O)Nc1ccc(F)c(C(=O)c2c[nH]c3ncc(-c4cc(F)c(N5CCN(C(=O)CC6(O)CCN(c7ccc(NC8CCC(=O)NC8=O)cc7F)CC6)CC5)c(F)c4)cc23)c1F` (stereo not shown) [Example 195, 5-[4-[4-[2-[1-[4-[(2,6-dioxo-3-piperidyl)amino]-2-fluoro-phenyl]-4-hydroxy-4-piperidyl]acetyl]piperazin-1-yl]-3,5-difluoro-phenyl]-3-[3-[[ethyl(methyl)sulfamoyl]amino]-2,6-difluoro-benzoyl]-1H-pyrrolo[2,3-b]pyridine] are 6.23 nM and 7.6%.
Molecule `CCN(C)S(=O)(=O)Nc1ccc(F)c(C(=O)c2c[nH]c3ncc(-c4cnc(N5CCN(C(=O)CC6(O)CCN(c7ccc(NC8CCC(=O)NC8=O)cn7)CC6)CC5)nc4)cc23)c1F` (stereo not shown) [Example 57, 5-[2-[4-[2-[1-[5-[(2,6-dioxo-3-piperidyl)amino]-2-pyridyl]-4-hydroxy-4-piperidyl]acetyl]piperazin-1-yl]pyrimidin-5-yl]-3-[3-[[ethyl(methyl)sulfamoyl]amino]-2,6-difluoro-benzoyl]-1H-pyrrolo[2,3-b]pyridine] had a DC50 of 10.1 nM. Besides, under setting [1], the Emax was determined as 18.2%.
`CCN(C)S(=O)(=O)Nc1ccc(F)c(C(=O)c2c[nH]c3ncc(-c4cnc(N5CCN(C(=O)CN6CCC(c7ccc(NC8CCC(=O)NC8=O)cc7)C(F)(F)C6)CC5)nc4)cc23)c1F` (stereo not shown) [Example 30, 5-[2-[4-[2-[4-[4-[(2,6-dioxo-3-piperidyl)amino]phenyl]-3,3-difluoro-1-piperidyl]acetyl]piperazin-1-yl]pyrimidin-5-yl]-3-[3-[[ethyl(methyl)sulfamoyl]amino]-2,6-difluoro-benzoyl]-1H-pyrrolo[2,3-b]pyridine] showed a DC50 of 4.27 nM. Further, under setting [1], the Emax was found to be 7.84%.
In the same order, the values of `CCN(C)S(=O)(=O)Nc1ccc(Cl)c(C(=O)c2c[nH]c3ncc(-c4ccc(N5CCN(C(=O)CC6(O)CCN(c7ccc(NC8CCC(=O)NC8=O)cc7F)CC6)CC5)nc4)cc23)c1F` (stereo not shown) [Example 201, 3-[6-chloro-3-[[ethyl(methyl)sulfamoyl]amino]-2-fluoro-benzoyl]-5-[6-[4-[2-[1-[4-[(2,6-dioxo-3-piperidyl)amino]-2-fluoro-phenyl]-4-hydroxy-4-piperidyl]acetyl]piperazin-1-yl]-3-pyridyl]-1H-pyrrolo[2,3-b]pyridine] are 4.19 nM and 6.67%.
Turning to `CCN(C)S(=O)(=O)Nc1ccc(F)c(C(=O)c2c[nH]c3ncc(-c4cnc(N5CCN(C(=O)CN6CCN(c7ccc(OC8CCC(=O)NC8=O)cn7)CC6)CC5)nc4)cc23)c1F` (stereo not shown) [Example A68, 5-[2-[4-[2-[4-[5-(2,6-Dioxopiperidin-3-yl)oxypyridin-2-yl]piperazin-1-yl]acetyl]piperazin-1-yl]pyrimidin-5-yl]-3-[3-[[ethyl(methyl)sulfamoyl]amino]-2,6-difluorobenzoyl]-1H-pyrrolo[2,3-b]pyridine], it took 50 nM to reach half-maximal degradation (DC50). In addition, under setting [1], the maximum response (Emax) was determined as 11%.
The molecule `CCN(C)S(=O)(=O)Nc1ccc(F)c(C(=O)c2c[nH]c3ncc(-c4ccc(N5CCN(C(=O)CC6(O)CCN(c7ccc(NC8CCC(=O)NC8=O)cc7F)CC6)CC5)cc4F)cc23)c1F` (stereo not shown) [Example 210, 5-[4-[4-[2-[1-[4-[(2,6-dioxo-3-piperidyl)amino]-2-fluoro-phenyl]-4-hydroxy-4-piperidyl]acetyl]piperazin-1-yl]-2-fluoro-phenyl]-3-[3-[[ethyl(methyl)sulfamoyl]amino]-2,6-difluoro-benzoyl]-1H-pyrrolo[2,3-b]pyridine] yielded a DC50 of 7.69 nM. The Emax under setting [1] was found to be 7.6%.
In the same order, the values of `CCN(C)S(=O)(=O)Nc1ccc(F)c(C(=O)c2c[nH]c3ncc(-c4ccc(N5CCN(C(=O)CC6(O)CCN(c7ccc(NC8CCC(=O)NC8=O)cc7F)CC6)CC5)c(Cl)c4)cc23)c1F` (stereo not shown) [Example 180, 5-[3-chloro-4-[4-[2-[1-[4-[(2,6-dioxo-3-piperidyl)amino]-2-fluoro-phenyl]-4-hydroxy-4-piperidyl]acetyl]piperazin-1-yl]phenyl]-3-[3-[[ethyl(methyl)sulfamoyl]amino]-2,6-difluoro-benzoyl]-1H-pyrrolo[2,3-b]pyridine] are 4.62 nM and 8.93%.
In the same order, the values of `CCN(C)S(=O)(=O)Nc1ccc(F)c(C(=O)c2c[nH]c3ncc(-c4ccc(N5CCN(C(=O)CC6(O)CCN(c7ccc(N[C@H]8CCC(=O)NC8=O)cc7Cl)CC6)CC5)nc4)cc23)c1F` [Example 208, 5-[6-[4-[2-[1-[2-chloro-4-[[(3S)-2,6-dioxo-3-piperidyl]amino]phenyl]-4-hydroxy-4-piperidyl]acetyl]piperazin-1-yl]-3-pyridyl]-3-[3-[[ethyl(methyl)sulfamoyl]amino]-2,6-difluoro-benzoyl]-1H-pyrrolo[2,3-b]pyridine] are 1.73 nM and 7.34%.
In the same order, the values of `CCN(C)S(=O)(=O)Nc1ccc(F)c(C(=O)c2c[nH]c3ncc(-c4cnc(N5CCN(C(=O)CN6CCC(c7ccc8c(N9CCC(=O)NC9=O)nn(C)c8c7)C(F)(F)C6)CC5)nc4)cc23)c1F` (stereo not shown) [Example 61, 3-(2,4-dioxohexahydropyrimidin-1-yl)-6-[1-[2-[4-[5-[3-[3-[[ethyl(methyl)sulfamoyl]amino]-2,6-difluoro-benzoyl]-1H-pyrrolo[2,3-b]pyridin-5-yl]pyrimidin-2-yl]piperazin-1-yl]-2-oxo-ethyl]-3,3-difluoro-4-piperidyl]-1-methyl-indazole] are 3.75 nM and 7.83%.
For `CCN(C)S(=O)(=O)Nc1ccc(F)c(C(=O)c2c[nH]c3ncc(-c4ccc(N5CCN(C(=O)CC6(O)CCN(c7ncc(NC8CCC(=O)NC8=O)cc7F)CC6)CC5)nc4)cc23)c1F` (stereo not shown) [Example 80, 5-[6-[4-[2-[1-[5-[(2,6-dioxo-3-piperidyl)amino]-3-fluoro-2-pyridyl]-4-hydroxy-4-piperidyl]acetyl]piperazin-1-yl]-3-pyridyl]-3-[3-[[ethyl(methyl)sulfamoyl]amino]-2,6-difluoro-benzoyl]-1H-pyrrolo[2,3-b]pyridine], the DC50 came out at 2.97 nM. Moreover, the Emax under setting [1] was 9.93%.
In turn, `CCN(C)S(=O)(=O)Nc1ccc(F)c(C(=O)c2c[nH]c3ncc(-c4ccc(N5CCN(C(=O)CC6(O)CCN(c7ccc8c(N9CCC(=O)NC9=O)nn(C)c8c7)CC6)CC5)cc4)cc23)c1F` [Example 202, 3-(2,4-dioxohexahydropyrimidin-1-yl)-6-[4-[2-[4-[4-[3-[3-[[ethyl(methyl)sulfamoyl]amino]-2,6-difluoro-benzoyl]-1H-pyrrolo[2,3-b]pyridin-5-yl]phenyl]piperazin-1-yl]-2-oxo-ethyl]-4-hydroxy-1-piperidyl]-1-methyl-indazole] came in with a DC50 of 2.1 nM. Moreover, under setting [1], the Emax turned out to be 7.44%.
In the same order, the values of `CCN(C)S(=O)(=O)Nc1ccc(F)c(C(=O)c2c[nH]c3ncc(-c4cnc(N5CCN(C(=O)CC6CCN(c7ccc(NC8CCC(=O)NC8=O)cc7F)C6)CC5)nc4)cc23)c1F` (stereo not shown) [Example 48, 5-[2-[4-[2-[1-[4-[(2,6-dioxo-3-piperidyl)amino]-2-fluoro-phenyl]pyrrolidin-3-yl]acetyl]piperazin-1-yl]pyrimidin-5-yl]-3-[3-[[ethyl(methyl)sulfamoyl]amino]-2,6-difluoro-benzoyl]-1H-pyrrolo[2,3-b]pyridine] are 23 nM and 15%.
In turn, `CCN(C)S(=O)(=O)Nc1ccc(F)c(C(=O)c2c[nH]c3ncc(-c4cnc(N5CCN(C(=O)CC6CCC(c7ccc(NC8CCC(=O)NC8=O)cc7)CC6)CC5)nc4)cc23)c1F` (single isomer, unassigned) [Example 36, 5-[2-[4-[2-[4-[4-[(2,6-dioxo-3-piperidyl)amino]phenyl]cyclohexyl]acetyl]piperazin-1-yl]pyrimidin-5-yl]-3-[3-[[ethyl(methyl)sulfamoyl]amino]-2,6-difluoro-benzoyl]-1H-pyrrolo[2,3-b]pyridine] displayed a DC50 of 21 nM. Further, the “HiBit 24 h Emax” value under setting [1] was 16.12%.
